{
  "source": "patent US10799593B2",
  "about": "“Nanodiamond particle complexes” (priority 2008, dated 2020)",
  "key": {"[1]": {"assay": "Spectroscopic analysis of DOX elution from Parylene A bi-layer", "type": "physicochemical", "details": "PBS", "protocol": "Spectroscopy Analysis. […] Samples were placed in a 12 well plate immersed in 1.0 ml of PBS for 10 min, 20 min, 40 min, 1 hour, 4 hour, and 24 hour increments. After each time point the solution was removed and the drug eluting glass disks were transferred to a vacant well and replenished with […] of PBS. Remaining solutions were analyzed in a DU Series 700 UV-Vis Scanning Spectrophotometer (BECKMAN COULTER, Fullerton, Calif.)."}, "[2]": {"details": "PBS compared with water; Pierstorff et al. 2008; cited from earlier work"}, "[3]": {"test_system": "RAW 264.7 murine macrophages", "assay": "DNA fragmentation assay on DOX-ND Parylene C devices", "type": "cell-based", "details": "16 and 20 hours, DOX positive control 2.5 μg/mL", "protocol": "Materials and Device Fabrication. A conformal 3 g base layer of Parylene C was deposited on pre-cut 2.5 cm×2.5 cm glass slides with a […] COATING SYSTEMS (SCS) PDS 2010 LABCOATER (SCS, Indianapolis, Ind.). The Parylene layer was oxidized via oxygen plasma treatment in a HARRICK Plasma Cleaner/Sterilizer (Ithaca, N.Y.) at 100 W for one minute. A DOX-ND solution was then added to the base layer so that the final DOX-ND concentration in solution was 6.6 μg/ml. Subsequently, solvent evaporation occurred in isolation at room temperature. Following DOX-ND deposition, an ultra-thin 0.15 g palylene C layer was deposited as an elution-limiting and control element. The final layer of Parylene C was treated with oxygen plasma at 100 W for one minute. Parylene C was pyrolized into a gaseous monomer at 690° C., and deposited at room temperature under vacuum conditions for all depositions. The preceding parameters apply to devices fabricated for spectroscopy studies. The present invention is not limited to these parameters. The concentration of DOX-ND was adjusted for devices used in the DNA fragmentation assay so that the final DOX-ND concentration in solution was 33 μg/ml.\nDNA Fragmentation Assay. […]"}, "[4]": {"test_system": "RAW 264.7 macrophages", "assay": "Electrophoretic DNA fragmentation assay on Parylene A substrates", "type": "cell-based, murine", "excerpt": "Substrate Preparation. Plain glass slides were sterilized in 70% ethanol and pre-treated with A-174 Silane (SCS COATINGS, Indianapolis, Ind.) adhesion promoter according to manufacturer's protocol. Approximately 20 grams of Parylene A (UNIGLOBE KISCO, White Plains, N.Y.) was loaded into a Parylene deposition system (PDS) 2010 LABCOTER® 2 (SCS COATINGS.) The deposition took place under previously indicated conditions (Kramer et al. 1984, 22, 475, Yang et al. Journal of Crystal Growth 1998, 183, 385, herein incorporated by reference in their entireties). Application of drug to the base layer of Parylene A was accomplished via desiccation of 100 μg dexmnethasone (SIGMA ALDRICH, St Louis, Mo.), or 25 μg doxorubicin (U.S. PHARMACOPIA, Rockville, Md.) under a laminar flow hood. A second layer of 150 mg of Parylene A was deposited over the drug films to produce the eluting layer.\nCell Culture Conditions. Macrophage cell line RAW 264.7 (AICC Manassas, Va.) cells were grown in DMEM media ([…] Inc, Hemdon, Va.) supplemented with 10% FBS (AICC) and 1% Penicillin/Streptomycin (LONZA, Walkersville, Md.). Investigation of inflammation pathways utilized lipo-polysacchmide 5 ng/ml (SIGMA ALDRICH) and resultant expression of IL-6 and TNF-α genes. Analysis of cellular apoptosis was accomplished using agarose electrophoresis of DNA fragmentation.\nElectrophoretic Assay. […]"}},
  "data": [
    {"smiles": "COc1cccc2c1C(=O)c1c(O)c3c(c(O)c1C2=O)C[C@@](O)(C(=O)CO)C[C@@H]3O[C@H]1C[C@H](N)[C@H](O)[C@H](C)O1", "note": "[DOX, doxorubicin]", "values": [
      {"measurement": "release of DOX, additive spectroscopic scans", "setting": "[1]; control: DOX applied to a base layer of Parylene A", "result": "complete release of DOX"},
      {"measurement": "release of DOX, additive spectroscopic scans", "setting": "[1]; pinhole sample: DOX between Parylene A layers", "result": "gradual release of DOX"},
      {"measurement": "solubility", "setting": "[2]", "result": "less soluble in PBS"},
      {"measurement": "DNA fragmentation / onset of apoptosis", "setting": "[3]", "result": "rigorous DNA fragmentation"},
      {"measurement": "DNA fragmentation (apoptosis), electrophoretic gel", "setting": "[4]", "result": "fragmentation of DNA indicative of cells actively undergoing apoptosis"}
    ]}
  ]
}
